One assay has as its target T1, Δ^6 -desaturase (Rattus norvegicus, UniProt Q9Z122).
T1 construct: The pellet was suspended in the homogenization solution to obtain a microsome solution; from tissue; host or cells: liver microsomes of a male Wistar rat
Nature of the assay: Inhibition of Δ6-desaturase in rat liver microsome ([1-14C]-linoleic acid substrate). Format: biochemical, rat (Wister male). To be noted: read-out: Inhibition on Δ^6 - (%).

The next assay has as its target T2, Δ^5 -desaturase (Rattus norvegicus, UniProt Q920R3).
T2 construct: from tissue; host or cells: liver microsomes of a male Wistar rat
Put plainly: Inhibition of Δ5-desaturase in rat liver microsome (conversion of [2-14C]-dihomo-γ-linolenic acid to arachidonic acid). The note with it: for specific inhibition of Δ^5 -desaturase / inhibition of Δ^5 -desaturation reaction from dihomo-γ-linolenic acid to arachidonic acid: in words; for specific inhibition of Δ^5 -desaturase: figure legends, compared with Δ^6 -desaturase (and Δ^9 -desaturase for sesamin); for inhibition of Δ^5 -desaturation reaction from dihomo-γ-linolenic acid to arachidonic acid: 0.001 to 0.5 mg/ml, FIGS. 1, 2 and 3, rat liver microsome; for inhibition at 30 µg/mL: read-out: Inhibition on Δ^5 -desaturase (%). Format: biochemical, rat (Wister male). As to the method: As a homogenization solution, a 50 mM phosphate buffer (pH 7.4) containing 0.15M KCl, 5 mM MgCl2.6H2 O, 1 mM EDTA, 0.25M saccharose and 1.5 mM glutathione was used. The liver of a Wister male rat was perfused with physiological saline and removed, and to the removed liver was added 4-fold by weight of the homogenization solution, and the whole was homogenized. The homogenate was centrifuged at 10,000×g for 20 minutes to obtain a supernatant, which was centrifuged at 100,000×g for one hour to obtain a pellet. The pellet was suspended in the homogenization solution to obtain a microsome solution containing 12.24 mg/ml protein. The above-mentioned procedures were carried out at 4° C.
To assay the Δ^5 -desaturase activity 100 μl of the rat liver microsome solution was added to 1 ml of 0.1M phosphate buffer (PH7.4) containing 0.25M saccharose, 0.15M KCl, 1.5 mM glutathione, 45 mM NaF, 0.5 mM nicotinamide, 5 mM MgCl2.6H20 O, 7.5 mM ATP, 0.4 mM CoA.Na2, 1.5 mM NADH, and 100 μM dihomo-γ-linolenic acid containing 0.1 μCi (1.7 nmoles) [2-^14 C]-dihomo-γ-linolenic acid per 1 ml, the mixture was incubated at 37° C for one hour, followed by an addition of 5 ml of ethanol to terminate the reaction. To the reaction mixture was added 1 ml of 4N KOH, and mixture was incubated at 60° C for 30 minutes for saponification. After the reaction, 3 ml of water, 100 μg of dihomo-γ-linolenic acid and 1 ml of 6N HCl were added thereon, and fatty acids in the reaction mixture were extracted twice with 5 ml of hexane. The extract was evaporated in a centrifuge evaporator and 1 ml of ethyl ether/methanol (9:1) was added to the residue, and the fatty acids were methylated with diazomethane. After allowing to stand at a room temperature for 30 minutes, the reaction mixture was evaporated in a centrifuge evaporator to remove the solvent, whereby methyl esters of the resulting fatty acids were obtained. The esters were separated on a 10% AgNO3 silica gel plate using petroleum ether/ethyl ether (1:1) as a developing solvent. Silica gel portions corresponding to the substrate dihomo-γ-linolenic acid and the product arachidonic acid respectively were peeled off, and to 5 ml of toluene-based scintillation fluid solution was added to the silica gel to measure the radioactivity by a scintillation counter. The radioactivity of the generated arachidonic acid was determined by subtracting a radioactivity at the onset of the reaction from a radioactivity after the reaction.
The enzyme inhibitory activities of sesamin, episesamin and sesamomolin were measured according to the above-mentioned procedure, except that the reaction mixture contained 0.001 to 0.5 mg/ml sesamin, episesamin or sesamolin. The radioactivity was measured as described above, and the percent inhibition was calculated.

Where two headings read alike, the source gives them in different places.

What is called inhibition is the percentage by which the read-out fell short of the control.

T1 sequence (Q9Z122 whole entry, stated change not applied): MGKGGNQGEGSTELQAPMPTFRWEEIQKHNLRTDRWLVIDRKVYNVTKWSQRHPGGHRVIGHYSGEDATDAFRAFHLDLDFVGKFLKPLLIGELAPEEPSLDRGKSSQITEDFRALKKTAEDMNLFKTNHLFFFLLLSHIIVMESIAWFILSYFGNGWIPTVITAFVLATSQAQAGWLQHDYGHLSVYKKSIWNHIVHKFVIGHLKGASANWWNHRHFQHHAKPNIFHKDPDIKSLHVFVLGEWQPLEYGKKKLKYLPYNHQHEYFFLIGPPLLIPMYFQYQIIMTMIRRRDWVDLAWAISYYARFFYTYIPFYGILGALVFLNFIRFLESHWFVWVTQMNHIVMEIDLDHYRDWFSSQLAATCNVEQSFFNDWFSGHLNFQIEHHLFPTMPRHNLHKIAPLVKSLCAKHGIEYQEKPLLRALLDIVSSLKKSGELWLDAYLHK
T2 sequence (Q920R3 whole entry, stated change not applied): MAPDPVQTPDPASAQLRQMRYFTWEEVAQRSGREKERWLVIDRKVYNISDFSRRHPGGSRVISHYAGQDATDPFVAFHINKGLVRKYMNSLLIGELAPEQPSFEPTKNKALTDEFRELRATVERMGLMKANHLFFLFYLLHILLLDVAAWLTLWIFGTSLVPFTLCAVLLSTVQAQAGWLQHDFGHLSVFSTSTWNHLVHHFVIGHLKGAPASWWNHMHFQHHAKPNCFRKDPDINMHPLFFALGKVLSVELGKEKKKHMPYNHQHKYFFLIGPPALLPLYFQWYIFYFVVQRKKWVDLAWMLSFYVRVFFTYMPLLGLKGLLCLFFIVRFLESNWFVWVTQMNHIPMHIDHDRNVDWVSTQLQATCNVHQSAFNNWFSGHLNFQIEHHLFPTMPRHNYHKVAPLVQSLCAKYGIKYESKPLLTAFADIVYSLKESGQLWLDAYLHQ

In the case of `COc1cc(/C=C/C(=O)CC(=O)/C=C/c2ccc(O)c(OC)c2)ccc1O` [Curcumin], the inhibition at 30 µg/mL at Δ^6 -desaturase (0.03 mg/ml, rat liver microsome) amounted to 36.1%.
Regarding `c1cc2c(cc1O[C@H]1OC[C@H]3[C@@H]1CO[C@@H]3c1ccc3c(c1)OCO3)OCO2` [Sesamolin], at Δ^5 -desaturase, the “specific inhibition of Δ^5 -desaturase” value is “specifically inhibits” and the “inhibition of Δ^5 -desaturation reaction from dihomo-γ-linolenic acid to arachidonic acid” value was “inhibited”.
As for `CCCCOCCOCCOCc1cc2c(cc1CCC)OCO2` [Piperonyl butoxide], the values for the inhibition at 30 µg/mL at Δ^6 -desaturase and at Δ^5 -desaturase were 0% and 32.5%, respectively.
As for `c1cc2c(cc1[C@H]1OC[C@H]3[C@@H]1CO[C@@H]3c1ccc3c(c1)OCO3)OCO2` [Sesamin], the inhibition at 30 µg/mL at Δ^6 -desaturase came to 0%. Besides, at Δ^5 -desaturase, the “specific inhibition of Δ^5 -desaturase” value is “specifically inhibits”, the “inhibition of Δ^5 -desaturation reaction from dihomo-γ-linolenic acid to arachidonic acid” value was “inhibited” and the inhibition at 30 µg/mL worked out at 39.2%.
